In assay [1] the target is human CXCR3. The arrangement: method as in PMID 24174496, PMID 25576486. As to conditions: cited from earlier work.
Assay [2] deals with T1, CXCR3B (Homo sapiens, UniProt P49682).
T1 construct: crude membranes
T1 sequence (P49682 1-415 isoform P49682-2): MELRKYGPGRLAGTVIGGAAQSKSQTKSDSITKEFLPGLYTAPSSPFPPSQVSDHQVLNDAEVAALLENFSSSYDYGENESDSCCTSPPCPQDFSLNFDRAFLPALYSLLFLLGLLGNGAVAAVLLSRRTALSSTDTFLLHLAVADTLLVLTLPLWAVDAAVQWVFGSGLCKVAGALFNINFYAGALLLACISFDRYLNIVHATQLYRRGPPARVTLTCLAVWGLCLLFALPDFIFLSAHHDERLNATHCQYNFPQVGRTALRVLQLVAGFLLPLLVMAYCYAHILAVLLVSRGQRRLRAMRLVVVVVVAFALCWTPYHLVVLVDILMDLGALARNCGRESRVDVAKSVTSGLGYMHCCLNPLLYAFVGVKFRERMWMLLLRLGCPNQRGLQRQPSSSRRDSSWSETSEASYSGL
Put plainly: Competition binding assay with [125I]CXCL10 on membranes of CXCR3B-transfected HEK293 cells. The note with it: 80 pM 125I-CXCL10, Cheng-Prusoff. As to the method:
(§1) The equilibrium inhibition constants (Ki) value of 1 at CXCR3 receptor was measured through competition binding assay using NBI74330 (Tocris Bioscience, Bristol, UK), an antagonist of CXCR3 receptor, [^125I]CXCL10 (ViTrax Inc., Placentia, CA) and CXCR3 transfected human embryonic kidney (HEK) 293 cells. CXCR3 has two major variants, CXCR3A and CXCR3B, with distinctive biological roles, so two types of HEK293 cells containing each CXCR3 variant were prepared. Before the cell-binding assay, two cDNA constructs containing CXCR3 transcript variant A (CXCR3A, GenBank accession No. NM_001504; GenScript) and CXCR3 transcript variant B (CXCR3B, GenBank accession No. NM_001142797; GenScript) and HEK293 cells were purchased from GenScript Biotech (Piscataway, NJ) and ATCC (Manassas, VA), respectively. Then the cDNA constructs were transfected to HEK293 cells, and the transfected cells were cultured to get enough amount for the cell-binding assay. […] The IC50 value of 1 was measured based on the regression plot between the […] radioligand and the different concentrations of 1. […]
(§2) Radioligand binding was performed using crude HEK293 membranes overexpressing CXCR3A or CXCR3B as previously described. […] The Ki values of each competitive antagonist for specific ^125I-CXCL10 binding sites were calculated using the method of Cheng and Prusoff, as previously described. […]

In assay [3] the test system is CXCR3. Also noted: method as in PMID 24486132. The note with it: read-out: binding affinity IC50; cited from earlier work.
For assay [4], the target named is T2, CXCR3A (Homo sapiens, UniProt P49682).
T2 construct: crude membranes
T2 sequence (P49682 1-368): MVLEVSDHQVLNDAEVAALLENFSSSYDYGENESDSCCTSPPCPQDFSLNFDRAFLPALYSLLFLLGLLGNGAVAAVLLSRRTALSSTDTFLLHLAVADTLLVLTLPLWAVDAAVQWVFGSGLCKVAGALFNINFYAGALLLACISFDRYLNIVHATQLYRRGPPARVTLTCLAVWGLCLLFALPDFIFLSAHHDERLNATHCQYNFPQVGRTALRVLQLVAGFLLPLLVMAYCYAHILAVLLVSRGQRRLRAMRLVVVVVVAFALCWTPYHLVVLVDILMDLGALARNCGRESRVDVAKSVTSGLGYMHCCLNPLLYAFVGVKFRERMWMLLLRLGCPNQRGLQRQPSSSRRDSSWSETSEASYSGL
Put plainly: Competition binding assay with [125I]CXCL10 on membranes of CXCR3A-transfected HEK293 cells. The note with it: 80 pM 125I-CXCL10, Cheng-Prusoff. The protocol:
as §1, §2

Data on two compounds can be found in article PMC10338423, “Synthesis and preclinical evaluation of a novel fluorine-18 labeled small-molecule PET radiotracer for imaging of CXCR3 receptor in mouse models of atherosclerosis” (EJNMMI Research, 2023).

The Kd is the concentration at which binding is half-saturated. As to `CCNC(=O)c1cnc(N2CCN(C3CCN(Cc4ccc(Cl)cc4)CC3)[C@@H](CC)C2)c(Cl)c1` [VUF11211], the dissociation constant Kd in assay [1] is 0.65 nM.
The Ki is the equilibrium dissociation constant of an inhibitor or competing ligand from its target. A higher Ki goes with a looser hold on the target. As usually defined, the IC50 is the point on the concentration scale where inhibition reaches its midpoint. With `CC[C@H]1CN(c2ncc(-c3nnco3)cc2Cl)CCN1C1CCN(Cc2ccc(Cl)cc2F)CC1` [compound 1, (S)-2-(5-chloro-6-(4-(1-(4-chloro-2-fluorobenzyl)piperidin-4-yl)-3-ethylpiperazin-1-yl)pyridin-3-yl)-1,3,4-oxadiazole], the Ki came to 0.31 ± 0.02 nM in assay [2] and 0.81 ± 0.02 nM in assay [4]. Moreover, in assay [3], the IC50 is 0.8 nM.
